According to patent US20240415858A1, “PROMOTING MYELINATION BY N-ACETYLGLUCOSAMINE AND MODULATION OF N-GLYCAN BRANCHING” (THE REGENTS OF THE UNIVERSITY OF CALIFORNIA, priority 2021, published 2024):

Tests used:
[1] = Brain uptake of oral [U13C]GIcNAc, LC-MS/MS of perfused brains
[2] = system: mouse neural stem cells (NSC) derived from the medial ganglionic eminence of E12.5 mouse embryos; experiment: Oligodendrogenesis from mouse neural stem cells in vitro (flow cytometry, immunofluorescence); format: cell-based; conditions: NSC in PDGF-AA differentiation media, 48 hrs
Description: Mice were bred and utilized as approved by the University of California, Irvine Institutional Animal Care and Use Committee. Dorsal forebrain cortical tissue was dissected from the medial ganglionic eminence (MGE) at embryonic day 12.5 (E12) of CD1 mice (Charles River) or Mgat5−/− C57BL/6 mice and their wildtype littermates and placed in dissection buffer comprising PBS, 0.6% glucose, and 50 U/mL Pen/Strep. Tissue from multiple embryos within the same litter were pooled, and a subsequent culture from a single litter was considered a biological repeat. The tissue was dissociated using 0.05% Trypsin-EDTA at 37° C. for 10 min, followed by treatment with soybean trypsin inhibitor (Life Technologies). Dissociated cells were re-suspended in proliferation medium comprising DMEM, 1× B27, 1× N2, 1 mM sodium pyruvate, 2 mM L-glutamine, 1 mM N-acetylcysteine, 20 ng/mL EGF (PeproTech), 10 ng/mL bFGF (PeproTech), and 2 μg/mL heparin and seeded at 150,000 cells/mL (non-tissue culture treated plastic plates) and grown as non-adherent spheres. Cell cultures were passaged approximately every 3 days using enzyme-free NeuroCult Chemical Dissociation Kit (Mouse) (StemCell Technologies). Cultures were passaged at least once prior to experimental use. For experiments, passaged cells were cultured in proliferation media (bFGF and EGF) or differentiation media (bFGF (10 ng/ml) and PDGF-AA (10 ng/ml); Life technologies) for 48 hours with or without the presence of GIcNAc (Ultimate Glucosamine, Wellesley Therapeutics) or kifunensine (GlycoSyn). Neurospheres were dispersed using the enzyme-free NeuroCult kit before being analyzed by flow cytometry using one or more of the following antibodies: anti-CD140a/PDGF-RA PE conjugate (1:200, A15785, Molecular Probes), anti-04 Alexa Fluor 488 conjugated (1:200, FAB1326G, RnD systems), Anti-GaIC Alexa Fluor 647 1:200, MAB342-AF647, Millipore), Anti-Olig2 (1:200, AB9610, Millipore) with anti-rabbit Alexa Fluor 488 (1:200, thermofisher).
For neural stem cell (NSC) immunofluorescence, whole neurospheres were seeded onto laminin-coated coverslips (Neuvitro) in proliferation medium. After 24 hours, proliferation media was removed and replaced with differentiation medium (same components as proliferation medium but excluding EGF, bFGF, and heparin) to induce differentiation. For analysis of mouse brains, brains were incubated in 30% sucrose for at least 72 hours, embedded in OCT (Tissue-tek), frozen for at least 48 hours at −80° C., and then cut at 40 microns on a cryostat. Multiple sections from −1 bregma to −2.5 bregma were then stained with antibodies for MBP (1:100; MAB386, Millipore), Olig2 (1:200; AB9610, Millipore), CC1 (1:100; OP90, Millipore), degraded MBP (1:200, AB5864, Millipore) and Amyloid Precursor Protein (APP, 1:200; clone 22C11). After overnight incubation with primary antibody, tissues were washed and incubated with secondary antibodies: goat anti-rat Alexa-fluor 488 (1:200, Thermofisher), goat anti-rabbit TxRd (1:200, Thermofisher). APP is a marker for neuro-axonal damage while co-staining for CC1 and Olig2 are markers of mature oligodendrocytes. In order to examine the amount of myelin, slices were incubated in Fluoromyelin (1:300; F34651, Thermofisher) for 45 minutes. Images were acquired on a Keyence fluorescence microscope. Mean fluorescence intensity of the medial corpus callosum was measured using ImageJ.
Oligodendrogenesis were examined in vitro using mouse neural stem cells (NSC) derived from the medial ganglionic eminence of E12.5 mouse embryos, where OPC's first appear. […] Consistent with increased PDGFRα surface expression, GIcNAc also promoted pre-oligodendrocyte differentiation as evidenced by augmented expression of Oligodendrocyte Transcription Factor (OLIG2) and increased numbers of 04 and GaIC positive cells (FIGS. 1A, 1B and 1C, FIGS. 5B and 5C). […]

| Molecule | UDP-[U13C]-HexNAc in brain ([1]; suckling pups of treated lactating mothers) | UDP-[U13C]-HexNAc in brain ([1]; treated adult female mice, 1 mg/mL in drinking water, perfused brains) | PDGFRα surface expression [2] | number of O4 cells induced by PDGF-AA differentiation media [2] |
| --- | --- | --- | --- | --- |
| N-Acetyl-D-[UL-^13C6]glucosamine [[U^13C]GIcNAc] | identified | identified | – | – |
| O=C1N[C@@H]2[C@@H](O)[C@@H](O)[C@H](O)[C@@H](CO)N2C1=O [kifunensine, reference compound] | – | – | significantly reduced | significantly reduced |
